Literature values in patent US11426350B1, “Reducing the environmental impact of farming using biochar” (Carbon Technology Holdings, LLC, priority 2014, dated 2022).

Tested on: E. coli O157:H7

In the case of Lactobacillus rhamnosus GG, the “E. coli O157:H7-induced lesions in Caco-2 cells” value is given as “prevent”.
